Results from article PMC5053573, “Structure-Based Design of Tetrahydroisoquinoline-7-carboxamides as Selective Discoidin Domain Receptor 1 (DDR1) Inhibitors” (Journal of Medicinal Chemistry, 2016).

What was measured:
Assay in all cases: biochemical
Conditions in all cases: read-out: %Ctrl @ 1000nM
ACVR2A = ACVR2A (Homo sapiens, UniProt P27037)
[1] = biological target: ABL1(Q252H)-phosphorylated (Homo sapiens, UniProt P00519, Q252H)
DYRK2 = DYRK2 (Homo sapiens, UniProt Q92630)
CDK2 = CDK2 (Homo sapiens, UniProt P24941)
DDR2 = DDR2 (Homo sapiens, UniProt Q16832)
QSK = biological target: T1, QSK (Homo sapiens, UniProt Q9Y2K2)
T1 construct: gene SIK3

ITK = ITK (Homo sapiens, UniProt Q08881)
MEK2 = biological target: T2, MEK2 (Homo sapiens, UniProt P36507)
T2 construct: gene MAP2K2

LKB1 = biological target: T3, LKB1 (Homo sapiens, UniProt Q15831)
T3 construct: gene STK11

DCAMKL1 = biological target: T4, DCAMKL1 (Homo sapiens, UniProt O15075)
T4 construct: gene DCLK1

CSNK2A1 = CSNK2A1 (Homo sapiens, UniProt P68400)
[2] = biological target: JAK2(JH1domain-catalytic) (Homo sapiens, UniProt O60674)
NDR1 = biological target: T5, NDR1 (Homo sapiens, UniProt Q15208)
T5 construct: gene STK38

EPHA3 = EPHA3 (Homo sapiens, UniProt P29320)
EPHA6 = EPHA6 (Homo sapiens, UniProt Q9UF33)
PIP5K1A = PIP5K1A (Homo sapiens, UniProt Q99755)
MAP4K3 = MAP4K3 (Homo sapiens, UniProt Q8IVH8)
MAST1 = MAST1 (Homo sapiens, UniProt Q9Y2H9)
RET = RET (Homo sapiens, UniProt P07949)
RIOK2 = RIOK2 (Homo sapiens, UniProt Q9BVS4)
MET = MET (Homo sapiens, UniProt P08581)
GAK = GAK (Homo sapiens, UniProt O14976)
KIT-autoinhibited = KIT-autoinhibited (Homo sapiens, UniProt P10721)
[3] = biological target: T6, RSK2(Kin.Dom.1-N-terminal) (Homo sapiens, UniProt P51812)
T6 construct: gene RPS6KA3

PIK3CA = PIK3CA (Homo sapiens, UniProt P42336)
MAP3K1 = MAP3K1 (Homo sapiens, UniProt Q13233)
AKT2 = AKT2 (Homo sapiens, UniProt P31751)
CLK3 = CLK3 (Homo sapiens, UniProt P49761)
SNARK = biological target: T7, SNARK (Homo sapiens, UniProt Q9H093)
T7 construct: gene NUAK2

MEK6 = biological target: T8, MEK6 (Homo sapiens, UniProt P52564)
T8 construct: gene MAP2K6

PLK2 = PLK2 (Homo sapiens, UniProt Q9NYY3)
TRKA = biological target: T9, TRKA (Homo sapiens, UniProt P04629)
T9 construct: gene NTRK1

FLT3(ITD,F691L) = FLT3(ITD,F691L) (Homo sapiens, UniProt P36888, F691L/ITD)
[4] = biological target: RPS6KA4(Kin.Dom.1-N-terminal) (Homo sapiens, UniProt O75676)
PDPK1 = PDPK1 (Homo sapiens, UniProt O15530)

MAP3K1, sequence (Q13233 whole entry): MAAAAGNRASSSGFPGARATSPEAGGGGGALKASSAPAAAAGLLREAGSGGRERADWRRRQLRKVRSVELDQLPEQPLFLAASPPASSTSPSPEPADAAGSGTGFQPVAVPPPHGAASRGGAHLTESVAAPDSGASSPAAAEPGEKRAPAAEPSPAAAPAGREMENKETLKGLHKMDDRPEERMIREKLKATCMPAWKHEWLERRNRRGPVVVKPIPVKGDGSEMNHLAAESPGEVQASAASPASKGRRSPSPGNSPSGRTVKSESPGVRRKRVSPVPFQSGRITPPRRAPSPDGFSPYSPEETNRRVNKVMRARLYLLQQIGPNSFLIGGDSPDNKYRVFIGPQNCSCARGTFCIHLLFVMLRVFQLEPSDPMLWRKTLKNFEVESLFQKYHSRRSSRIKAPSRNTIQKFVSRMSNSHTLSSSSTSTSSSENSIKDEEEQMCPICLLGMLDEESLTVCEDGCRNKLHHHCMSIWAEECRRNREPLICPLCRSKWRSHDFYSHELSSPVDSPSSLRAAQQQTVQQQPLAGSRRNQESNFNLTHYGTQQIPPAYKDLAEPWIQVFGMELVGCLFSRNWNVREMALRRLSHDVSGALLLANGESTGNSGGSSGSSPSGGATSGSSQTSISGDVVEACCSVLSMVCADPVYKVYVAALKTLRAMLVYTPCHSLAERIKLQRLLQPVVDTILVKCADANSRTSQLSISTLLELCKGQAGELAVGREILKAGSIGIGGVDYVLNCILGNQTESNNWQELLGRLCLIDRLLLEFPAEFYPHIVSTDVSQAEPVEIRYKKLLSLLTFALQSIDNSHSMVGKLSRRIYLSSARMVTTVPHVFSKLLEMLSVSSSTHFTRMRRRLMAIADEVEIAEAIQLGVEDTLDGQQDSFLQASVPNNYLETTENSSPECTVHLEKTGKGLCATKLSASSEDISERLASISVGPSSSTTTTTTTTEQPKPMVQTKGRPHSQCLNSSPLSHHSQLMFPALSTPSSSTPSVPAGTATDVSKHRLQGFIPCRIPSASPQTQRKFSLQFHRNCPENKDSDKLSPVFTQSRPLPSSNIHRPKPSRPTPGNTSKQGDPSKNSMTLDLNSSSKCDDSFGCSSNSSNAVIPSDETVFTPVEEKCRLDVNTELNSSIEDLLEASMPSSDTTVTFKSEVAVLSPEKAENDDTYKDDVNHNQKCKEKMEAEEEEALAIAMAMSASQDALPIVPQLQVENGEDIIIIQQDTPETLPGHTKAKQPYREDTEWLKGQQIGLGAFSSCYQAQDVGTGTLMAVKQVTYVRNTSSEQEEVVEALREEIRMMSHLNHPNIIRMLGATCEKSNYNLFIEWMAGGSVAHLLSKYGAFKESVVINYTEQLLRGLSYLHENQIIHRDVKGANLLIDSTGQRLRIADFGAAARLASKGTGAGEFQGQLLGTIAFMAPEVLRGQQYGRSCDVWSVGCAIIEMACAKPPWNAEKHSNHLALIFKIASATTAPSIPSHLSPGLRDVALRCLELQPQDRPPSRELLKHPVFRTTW
EPHA3, sequence (P29320 whole entry): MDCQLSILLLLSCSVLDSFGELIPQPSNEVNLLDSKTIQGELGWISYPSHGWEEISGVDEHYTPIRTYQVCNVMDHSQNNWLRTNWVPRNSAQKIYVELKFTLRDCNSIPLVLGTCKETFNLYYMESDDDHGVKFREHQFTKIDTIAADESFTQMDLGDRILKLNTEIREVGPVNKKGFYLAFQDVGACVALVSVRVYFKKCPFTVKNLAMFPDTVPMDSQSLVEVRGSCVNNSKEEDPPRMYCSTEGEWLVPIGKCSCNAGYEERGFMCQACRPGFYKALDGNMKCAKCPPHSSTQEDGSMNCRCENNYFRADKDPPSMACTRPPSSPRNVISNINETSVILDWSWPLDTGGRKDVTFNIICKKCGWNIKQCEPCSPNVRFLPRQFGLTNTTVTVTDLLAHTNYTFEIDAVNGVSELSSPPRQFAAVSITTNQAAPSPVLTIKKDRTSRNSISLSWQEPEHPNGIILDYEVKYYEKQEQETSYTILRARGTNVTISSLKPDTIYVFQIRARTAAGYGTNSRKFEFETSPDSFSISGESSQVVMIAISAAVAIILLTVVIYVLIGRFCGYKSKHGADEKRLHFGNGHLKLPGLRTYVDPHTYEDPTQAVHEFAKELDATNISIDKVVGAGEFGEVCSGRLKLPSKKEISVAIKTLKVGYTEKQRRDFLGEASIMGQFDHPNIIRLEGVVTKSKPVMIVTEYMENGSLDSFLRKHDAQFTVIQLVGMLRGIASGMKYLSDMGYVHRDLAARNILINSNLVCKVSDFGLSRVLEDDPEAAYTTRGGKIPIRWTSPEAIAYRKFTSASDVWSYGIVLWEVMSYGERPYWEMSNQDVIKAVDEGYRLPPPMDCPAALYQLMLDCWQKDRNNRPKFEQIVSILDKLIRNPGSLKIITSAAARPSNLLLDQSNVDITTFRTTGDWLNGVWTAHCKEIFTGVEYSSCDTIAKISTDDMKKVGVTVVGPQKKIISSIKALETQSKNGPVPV
MAP4K3, sequence (Q8IVH8 whole entry): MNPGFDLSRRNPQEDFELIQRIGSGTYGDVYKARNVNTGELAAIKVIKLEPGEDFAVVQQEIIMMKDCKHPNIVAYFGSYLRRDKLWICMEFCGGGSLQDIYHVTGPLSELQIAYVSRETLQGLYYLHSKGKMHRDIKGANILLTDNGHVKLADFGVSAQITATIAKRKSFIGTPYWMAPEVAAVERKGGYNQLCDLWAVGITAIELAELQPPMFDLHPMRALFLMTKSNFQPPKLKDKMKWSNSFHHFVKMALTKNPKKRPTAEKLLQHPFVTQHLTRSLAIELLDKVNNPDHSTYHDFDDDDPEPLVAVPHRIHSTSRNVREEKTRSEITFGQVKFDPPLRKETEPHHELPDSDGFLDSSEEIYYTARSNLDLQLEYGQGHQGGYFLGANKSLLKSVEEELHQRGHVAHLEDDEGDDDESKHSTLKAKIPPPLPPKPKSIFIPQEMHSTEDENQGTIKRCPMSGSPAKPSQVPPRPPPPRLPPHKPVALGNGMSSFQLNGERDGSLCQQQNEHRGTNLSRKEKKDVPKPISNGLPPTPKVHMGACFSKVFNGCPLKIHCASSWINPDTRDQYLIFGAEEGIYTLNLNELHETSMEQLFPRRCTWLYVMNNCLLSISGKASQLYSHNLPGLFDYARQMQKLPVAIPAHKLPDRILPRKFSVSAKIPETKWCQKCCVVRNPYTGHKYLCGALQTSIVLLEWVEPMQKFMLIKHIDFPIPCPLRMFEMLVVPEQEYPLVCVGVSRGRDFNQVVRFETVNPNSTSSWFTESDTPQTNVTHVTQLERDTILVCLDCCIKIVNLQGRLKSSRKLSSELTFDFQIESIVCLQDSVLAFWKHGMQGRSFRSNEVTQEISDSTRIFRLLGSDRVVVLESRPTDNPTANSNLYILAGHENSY
JAK2(JH1domain-catalytic), sequence (O60674 whole entry): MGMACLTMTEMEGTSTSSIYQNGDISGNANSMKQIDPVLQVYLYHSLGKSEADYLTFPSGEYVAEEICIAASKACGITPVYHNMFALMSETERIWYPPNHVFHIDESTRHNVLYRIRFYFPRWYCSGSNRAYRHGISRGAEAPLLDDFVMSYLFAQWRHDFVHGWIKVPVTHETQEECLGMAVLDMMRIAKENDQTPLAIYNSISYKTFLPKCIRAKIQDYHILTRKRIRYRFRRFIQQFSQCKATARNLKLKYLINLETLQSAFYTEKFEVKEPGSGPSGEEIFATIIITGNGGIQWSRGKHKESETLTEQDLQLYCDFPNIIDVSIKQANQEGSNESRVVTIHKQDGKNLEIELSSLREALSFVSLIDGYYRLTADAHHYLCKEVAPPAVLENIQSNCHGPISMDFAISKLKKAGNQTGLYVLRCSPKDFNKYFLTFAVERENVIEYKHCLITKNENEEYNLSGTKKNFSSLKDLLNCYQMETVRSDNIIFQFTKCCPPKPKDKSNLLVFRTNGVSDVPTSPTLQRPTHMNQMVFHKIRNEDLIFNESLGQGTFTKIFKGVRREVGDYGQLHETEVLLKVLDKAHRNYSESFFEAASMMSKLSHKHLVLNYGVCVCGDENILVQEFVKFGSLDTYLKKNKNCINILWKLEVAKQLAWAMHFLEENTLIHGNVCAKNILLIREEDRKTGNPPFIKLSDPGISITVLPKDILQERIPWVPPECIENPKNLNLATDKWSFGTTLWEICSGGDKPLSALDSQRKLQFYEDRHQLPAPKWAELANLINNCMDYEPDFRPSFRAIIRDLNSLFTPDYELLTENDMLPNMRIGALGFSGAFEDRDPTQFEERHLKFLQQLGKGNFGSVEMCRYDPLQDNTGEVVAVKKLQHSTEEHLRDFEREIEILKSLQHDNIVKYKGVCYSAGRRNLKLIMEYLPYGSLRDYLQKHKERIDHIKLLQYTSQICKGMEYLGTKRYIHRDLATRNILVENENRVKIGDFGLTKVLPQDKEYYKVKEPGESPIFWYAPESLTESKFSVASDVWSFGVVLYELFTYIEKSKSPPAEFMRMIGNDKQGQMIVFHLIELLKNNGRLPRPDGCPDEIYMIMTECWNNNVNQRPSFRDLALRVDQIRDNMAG
ACVR2A, sequence (P27037 whole entry): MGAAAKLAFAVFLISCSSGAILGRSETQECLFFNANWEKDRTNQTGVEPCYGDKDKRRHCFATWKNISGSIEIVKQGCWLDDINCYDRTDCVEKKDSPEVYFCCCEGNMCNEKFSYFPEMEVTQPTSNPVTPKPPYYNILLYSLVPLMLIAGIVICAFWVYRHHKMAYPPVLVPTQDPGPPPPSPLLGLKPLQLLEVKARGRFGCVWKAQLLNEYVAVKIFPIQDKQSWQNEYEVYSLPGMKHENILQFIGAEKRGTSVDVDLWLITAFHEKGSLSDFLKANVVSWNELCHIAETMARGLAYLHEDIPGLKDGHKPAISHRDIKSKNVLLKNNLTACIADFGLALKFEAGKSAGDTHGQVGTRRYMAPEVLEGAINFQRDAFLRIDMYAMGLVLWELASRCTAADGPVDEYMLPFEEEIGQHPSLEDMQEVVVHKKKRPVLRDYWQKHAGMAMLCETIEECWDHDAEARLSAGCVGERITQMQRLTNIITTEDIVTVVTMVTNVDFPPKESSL

Cc1cn(-c2cc(NC(=O)c3ccc4c(c3)CN(c3cncnc3)C[C@@H]4C)cc(C(F)(F)F)c2)cn1 [Compound 6j]
remaining activity at 1 µM (ACVR2A): 98%
remaining activity at 1 µM [1]: 95%
remaining activity at 1 µM (DYRK2): 100%
remaining activity at 1 µM (CDK2): 86%
remaining activity at 1 µM (DDR2): 0.35%
remaining activity at 1 µM (QSK): 94%
remaining activity at 1 µM (ITK): 97%
remaining activity at 1 µM (MEK2): 100%
remaining activity at 1 µM (LKB1): 77%
remaining activity at 1 µM (DCAMKL1): 100%
remaining activity at 1 µM (CSNK2A1): 100%
remaining activity at 1 µM [2]: 100%
remaining activity at 1 µM (NDR1): 98%
remaining activity at 1 µM (EPHA3): 55%
remaining activity at 1 µM (EPHA6): 58%
remaining activity at 1 µM (PIP5K1A): 100%
remaining activity at 1 µM (MAP4K3): 96%
remaining activity at 1 µM (MAST1): 100%
remaining activity at 1 µM (RET): 94%
remaining activity at 1 µM (RIOK2): 77%
remaining activity at 1 µM (MET): 100%
remaining activity at 1 µM (GAK): 95%
remaining activity at 1 µM (KIT-autoinhibited): 100%
remaining activity at 1 µM [3]: 100%
remaining activity at 1 µM (PIK3CA): 100%
remaining activity at 1 µM (MAP3K1): 95%
remaining activity at 1 µM (AKT2): 100%
remaining activity at 1 µM (CLK3): 95%
remaining activity at 1 µM (SNARK): 100%
remaining activity at 1 µM (MEK6): 98%
remaining activity at 1 µM (PLK2): 100%
remaining activity at 1 µM (TRKA): 3.2%
remaining activity at 1 µM (FLT3(ITD,F691L)): 100%
remaining activity at 1 µM [4]: 87%
remaining activity at 1 µM (PDPK1): 84%
